# Test results: ChEMBL document CHEMBL5241111, “Non-steroidal anti-inflammatory drugs: recent advances in the use of synthetic COX-2 inhibitors” (RSC Med Chem, 2022)
# Experiments:
# [1] = target: T1, Polyunsaturated fatty acid 5-lipoxygenase (Homo sapiens, UniProt P09917); test: Inhibition of 5-LOX (unknown origin) using linoleic acid as substrate preincubated for 5 mins followed by substrate addition by absorbance based analysis
# T1 sequence (P09917 whole entry): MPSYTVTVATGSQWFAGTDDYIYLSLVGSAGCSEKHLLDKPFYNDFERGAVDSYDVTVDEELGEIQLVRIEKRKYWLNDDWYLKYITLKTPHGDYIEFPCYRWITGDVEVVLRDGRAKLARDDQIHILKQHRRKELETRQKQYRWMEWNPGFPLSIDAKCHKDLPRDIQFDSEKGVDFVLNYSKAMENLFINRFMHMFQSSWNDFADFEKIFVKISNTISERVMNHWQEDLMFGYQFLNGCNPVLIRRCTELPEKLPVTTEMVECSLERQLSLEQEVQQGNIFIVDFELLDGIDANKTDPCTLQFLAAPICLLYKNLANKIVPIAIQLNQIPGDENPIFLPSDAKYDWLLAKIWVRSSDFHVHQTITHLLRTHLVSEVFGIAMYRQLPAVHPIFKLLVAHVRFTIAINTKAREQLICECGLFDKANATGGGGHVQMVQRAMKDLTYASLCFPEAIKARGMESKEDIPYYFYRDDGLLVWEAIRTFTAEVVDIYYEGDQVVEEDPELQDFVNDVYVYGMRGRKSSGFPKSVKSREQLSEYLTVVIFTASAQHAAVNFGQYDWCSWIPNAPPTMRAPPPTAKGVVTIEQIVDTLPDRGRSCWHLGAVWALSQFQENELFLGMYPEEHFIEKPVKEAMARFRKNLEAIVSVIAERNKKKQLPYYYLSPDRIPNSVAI
# [2] = target: T2, Polyunsaturated fatty acid lipoxygenase ALOX15 (Homo sapiens, UniProt P16050); test: Inhibition of 15-LOX (unknown origin)
# T2 sequence (P16050 whole entry): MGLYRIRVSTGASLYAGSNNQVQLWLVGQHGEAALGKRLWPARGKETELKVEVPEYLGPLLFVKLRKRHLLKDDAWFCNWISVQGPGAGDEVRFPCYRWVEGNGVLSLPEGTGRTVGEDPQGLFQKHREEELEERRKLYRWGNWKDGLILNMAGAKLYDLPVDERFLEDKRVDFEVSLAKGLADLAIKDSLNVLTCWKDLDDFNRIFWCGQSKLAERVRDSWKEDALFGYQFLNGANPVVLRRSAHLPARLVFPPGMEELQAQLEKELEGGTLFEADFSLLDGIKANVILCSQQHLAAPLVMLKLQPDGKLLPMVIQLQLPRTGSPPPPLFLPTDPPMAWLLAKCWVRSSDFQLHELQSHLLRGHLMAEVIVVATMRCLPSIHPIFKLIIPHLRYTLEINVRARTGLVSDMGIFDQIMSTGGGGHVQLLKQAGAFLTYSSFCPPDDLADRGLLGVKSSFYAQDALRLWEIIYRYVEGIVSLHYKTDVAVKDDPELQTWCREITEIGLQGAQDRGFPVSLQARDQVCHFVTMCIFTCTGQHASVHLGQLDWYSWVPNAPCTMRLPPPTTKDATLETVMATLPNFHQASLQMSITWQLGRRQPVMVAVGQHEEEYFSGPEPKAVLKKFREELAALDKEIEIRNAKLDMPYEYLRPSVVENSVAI
# [3] = target: T3, Prostaglandin G/H synthase 2 (Homo sapiens, UniProt P35354); test: Inhibition of COX-2 (unknown origin)
# T3 sequence (P35354 whole entry): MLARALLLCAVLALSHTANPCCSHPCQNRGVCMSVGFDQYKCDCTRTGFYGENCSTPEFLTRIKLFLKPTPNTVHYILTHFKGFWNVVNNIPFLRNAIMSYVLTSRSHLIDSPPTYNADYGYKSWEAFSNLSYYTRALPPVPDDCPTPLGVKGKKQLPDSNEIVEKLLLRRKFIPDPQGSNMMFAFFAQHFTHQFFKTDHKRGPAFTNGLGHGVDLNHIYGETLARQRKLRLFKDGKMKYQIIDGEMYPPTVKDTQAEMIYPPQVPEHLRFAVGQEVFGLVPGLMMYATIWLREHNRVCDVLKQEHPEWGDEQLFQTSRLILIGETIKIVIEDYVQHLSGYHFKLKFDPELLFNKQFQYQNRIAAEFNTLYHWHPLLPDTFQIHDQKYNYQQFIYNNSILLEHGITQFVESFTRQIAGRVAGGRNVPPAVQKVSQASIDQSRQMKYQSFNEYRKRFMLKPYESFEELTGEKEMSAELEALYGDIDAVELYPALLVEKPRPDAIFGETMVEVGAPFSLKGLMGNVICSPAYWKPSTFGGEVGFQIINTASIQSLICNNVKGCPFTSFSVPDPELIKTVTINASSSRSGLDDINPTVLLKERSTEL
# [4] = target: T3, Prostaglandin G/H synthase 2; test: Inhibition of COX-2 (unknown origin) by colorimetric assay
# [5] = target: T4, Prostaglandin G/H synthase 2 (Homo sapiens) (UniProt P35354); details: dose 2-10 nM, time 1.0 min
# T4 sequence (whole entry): T3 sequence (P35354 whole entry)
# [6] = target: COX-1/COX-2 (Homo sapiens) (UniProt P35354+P23219); test: Selectivity index, ratio of IC50 for inhibition of COX-1 (unknown origin) to IC50 for inhibition of COX-2 (unknown origin); type: protein assay
structure (smiles),measurement,setting,value
O=C(c1cccs1)c1sc(N2CCOCC2)nc1-c1ccc([N+](=O)[O-])cc1,IC50,[1],380 nM
Cc1ccc(-c2cs/c(=N\C(=O)c3cccs3)n2-c2ccccc2)cc1,IC50,[1],380 nM
O=C1CS/C(=N/c2nnc(-c3ccccc3O)s2)N1,IC50,[2],2540 nM
CCC(C)C(=O)[C@H]1C(=O)[C@@]2(CC=C(C)C)C[C@H](C[C@H]3[C@@H](C[C@H](C(C)(C)O)C3(C)C)C2=O)C1(C)C (stereo not given in full),IC50,[3],8320 nM
CCCCNc1cc(C(=O)N/N=c2\scc(-c3ccc(OC)cc3)n2-c2ccccc2)cc(S(N)(=O)=O)c1Oc1ccccc1,IC50,[4],1520 nM
Cc1ccc(/C=C2\CN(C)CC3C2=NN(c2ccccc2)C3c2ccc(C)s2)s1 (stereo not given),inhibition,[5],< 98%
CCCCNc1cc(C(=O)n2nc(C)cc2C)cc(S(N)(=O)=O)c1Oc1ccccc1,IC50,[4],4750 nM
Cc1csc(/C=C2\CN(C)CC3C2=NN(c2ccccc2)C3c2cc(C)cs2)c1 (stereo not given),inhibition,[5],< 98%
O=C(c1cccs1)c1sc(N(c2ccccc2)c2ccccc2)nc1-c1ccc(C(F)(F)F)cc1,IC50,[1],380 nM
O=C(c1cccs1)c1sc(N2CCOCC2)nc1-c1ccc(C(F)(F)F)cc1,IC50,[1],380 nM
Cc1nnc(/N=C2\NC(=O)/C(=C/c3ccc(N(C)C)cc3)S2)s1,IC50,[2],3110 nM
O=C1CS/C(=N/c2nnc(-c3ccc(Br)cc3)s2)N1,IC50,[2],2540 nM
Cc1c(C(=O)/C=C/c2ccccc2)nnn1-c1ccc(S(N)(=O)=O)cc1,Ratio IC50,[6],1.95
same,IC50,[3],2610 nM
Cc1nnc(/N=C2\NC(=O)CS2)s1,IC50,[2],2540 nM
Cc1ccc(-c2nc(N3CCOCC3)sc2C(=O)c2cccs2)cc1,IC50,[1],380 nM
C=CCn1c(-c2ccc(C)cc2)cs/c1=N\NC(=O)c1cc(NCCCC)c(Oc2ccccc2)c(S(N)(=O)=O)c1,IC50,[4],1520 nM
CCCCNc1cc(C(=O)N/N=c2\scc(-c3ccc(C)cc3)n2-c2ccccc2)cc(S(N)(=O)=O)c1Oc1ccccc1,IC50,[4],1520 nM
CCCCNc1cc(C(=O)N/N=c2\scc(-c3ccc(Cl)cc3)n2-c2ccccc2)cc(S(N)(=O)=O)c1Oc1ccccc1,IC50,[4],1520 nM
O=C(c1cccs1)c1sc(N(c2ccccc2)c2ccccc2)nc1-c1ccc(F)cc1,IC50,[1],380 nM
N#Cc1ccc(-c2nc(N(c3ccccc3)c3ccccc3)sc2C(=O)c2cccs2)cc1,IC50,[1],380 nM
O=C(c1cccs1)c1sc(N(c2ccccc2)c2ccccc2)nc1-c1ccc([N+](=O)[O-])cc1,IC50,[1],380 nM
CN1C/C(=C\c2ccc(Br)s2)C2=NN(c3ccccc3)C(c3ccc(Br)s3)C2C1 (stereo not given),inhibition,[5],< 98%
C=CCn1c(-c2ccc(Cl)cc2)cs/c1=N\NC(=O)c1cc(NCCCC)c(Oc2ccccc2)c(S(N)(=O)=O)c1,IC50,[4],1520 nM
CC(c1cc2ccccc2s1)N(O)C(N)=O (stereo not given) [ZILEUTON],IC50,[2],15600 nM
Cc1sc(/C=C2\CN(C)CC3C2=NN(c2ccccc2)C3c2cc(F)c(C)s2)cc1F (stereo not given),inhibition,[5],< 98%
Cc1nnc(/N=C2\NC(=O)/C(=C/c3ccc(Br)cc3)S2)s1,IC50,[2],3110 nM
N#Cc1ccc(-c2cs/c(=N\C(=O)c3cccs3)n2-c2ccccc2)cc1,IC50,[1],380 nM
Cc1nnc(/N=C2\NC(=O)/C(=C/c3cccnc3)S2)s1,IC50,[2],3360 nM
Cc1nnc(/N=C2\NC(=O)/C(=C/c3ccc(F)cc3)S2)s1,IC50,[2],3110 nM
CN1C/C(=C\c2cccs2)C2=NN(c3ccccc3)C(c3cccs3)C2C1 (stereo not given),inhibition,[5],< 98%
CCCCNc1cc(C(=O)N/N=c2\scc(-c3ccc(Cl)cc3)n2-c2ccc(Br)cc2)cc(S(N)(=O)=O)c1Oc1ccccc1,IC50,[4],1520 nM
Cc1nnc(/N=C2\NC(=O)/C(=C/c3ccsc3)S2)s1,IC50,[2],3360 nM
O=C(c1cccs1)c1sc(N2CCOCC2)nc1-c1ccccc1,IC50,[1],380 nM
O=C(/N=c1/scc(-c2ccccc2)n1-c1ccccc1)c1cccs1,IC50,[1],380 nM
O=C(c1cccs1)c1sc(N(c2ccccc2)c2ccccc2)nc1-c1ccccc1,IC50,[1],380 nM
CN1C/C(=C\c2ccc(Cl)s2)C2=NN(c3ccccc3)C(c3ccc(Cl)s3)C2C1 (stereo not given),inhibition,[5],< 98%
Cc1nnc(/N=C2\NC(=O)/C(=C/C=C/c3ccccc3)S2)s1,IC50,[2],3360 nM
N#Cc1ccc(-c2nc(N3CCOCC3)sc2C(=O)c2cccs2)cc1,IC50,[1],380 nM
Cc1sc(/C=C2\CN(C)CC3C2=NN(c2ccccc2)C3c2cc(Br)c(C)s2)cc1Br (stereo not given),inhibition,[5],< 98%
O=C(c1cccs1)c1sc(N2CCOCC2)nc1-c1ccc(F)cc1,IC50,[1],380 nM
C=CCc1ccc(-n2c(-c3cc(NCCCC)c(Oc4ccccc4)c(S(N)(=O)=O)c3)n[nH]c2=S)cc1,IC50,[4],4590 nM
O=C(/N=c1\scc(-c2ccc(C(F)(F)F)cc2)n1-c1ccccc1)c1cccs1,IC50,[1],380 nM
O=C(/N=c1\scc(-c2ccc(F)cc2)n1-c1ccccc1)c1cccs1,IC50,[1],380 nM
CCCCNc1cc(C(=O)N/N=c2\scc(-c3ccc(C)cc3)n2-c2ccc(Br)cc2)cc(S(N)(=O)=O)c1Oc1ccccc1,IC50,[4],1520 nM
Cc1nnc(/N=C2\NC(=O)/C(=C/c3ccc(O)cc3)S2)s1,IC50,[2],3110 nM
CC(C)=CC[C@H]1C[C@@H]2C[C@@H]3[C@@H](C[C@]4(C)C(C)(C)OC[C@]34C)C(=O)[C@](C(=O)c3ccccc3)(C1=O)C2(C)C,IC50,[3],5270 nM
O=C1CS/C(=N/c2nnc(-c3ccc(O)cc3)s2)N1,IC50,[2],2540 nM
Cc1nnc(/N=C2\NC(=O)/C(=C/c3ccc(Cl)cc3)S2)s1,IC50,[2],3110 nM
O=C(c1cccs1)c1sc(Nc2ccccc2)nc1-c1ccc(F)cc1,IC50,[1],380 nM
CCCCNc1cc(-c2n[nH]c(=S)n2-c2ccccc2)cc(S(N)(=O)=O)c1Oc1ccccc1,IC50,[4],280 nM
CCc1ccc(/C=C2\CN(C)CC3C2=NN(c2ccccc2)C3c2ccc(CC)s2)s1 (stereo not given),inhibition,[5],< 98%
Cc1ccc(-c2nc(N(c3ccccc3)c3ccccc3)sc2C(=O)c2cccs2)cc1,IC50,[1],380 nM
CCCCNc1cc(-c2n[nH]c(=S)o2)cc(S(N)(=O)=O)c1Oc1ccccc1,IC50,[4],5730 nM
CN1C/C(=C\c2ccc([N+](=O)[O-])s2)C2=NN(c3ccccc3)C(c3ccc([N+](=O)[O-])s3)C2C1 (stereo not given),inhibition,[5],< 98%
Cc1ccc(-c2nnc(/N=C3\NC(=O)CS3)s2)cc1,IC50,[2],2540 nM
Cc1nnc(/N=C2\NC(=O)/C(=C/c3ccc(C(C)C)cc3)S2)s1,IC50,[2],3110 nM
COc1ccc(/C=C2\S/C(=N/c3nnc(C)s3)NC2=O)cc1,IC50,[2],3110 nM
CCCCNc1cc(C(=O)N2N=C(C)CC2=O)cc(S(N)(=O)=O)c1Oc1ccccc1,IC50,[4],5110 nM
CN1C/C(=C\c2ccc(O)s2)C2=NN(c3ccccc3)C(c3ccc(O)s3)C2C1 (stereo not given),inhibition,[5],< 98%
CCCCNc1cc(C(=O)N/N=c2\scc(-c3ccc(OC)cc3)n2-c2ccc(Br)cc2)cc(S(N)(=O)=O)c1Oc1ccccc1,IC50,[4],1520 nM
Cc1nnc(/N=C2\NC(=O)/C(=C/C3CCCCC3)S2)s1,IC50,[2],3360 nM
C=CCn1c(-c2ccc(OC)cc2)cs/c1=N\NC(=O)c1cc(NCCCC)c(Oc2ccccc2)c(S(N)(=O)=O)c1,IC50,[4],1520 nM
CN1C/C(=C\c2ccc(F)s2)C2=NN(c3ccccc3)C(c3ccc(F)s3)C2C1 (stereo not given),inhibition,[5],< 98%
O=C(/N=c1\scc(-c2ccc([N+](=O)[O-])cc2)n1-c1ccccc1)c1cccs1,IC50,[1],380 nM
